Reference: patent US8563730B2, “Pyrazole and fused pyrazole glucokinase activators” (Takeda San Diego, Inc., priority 2008, dated 2013)
Values joined by “and” are separate entries in the source; they are usually repeats but may differ in a detail not shown here. Identical values can stand only once. Like-named read-outs stand apart in the source and are kept apart here.

Target: T1, GK (glucokinase, residues 12-465) (Homo sapiens, UniProt P35557)
T1 construct: I.D. No. 1 corresponds to residues 12-465 of glucokinase; made in house; host or cells: DH10b-T1r E. coli
T1 sequence (P35557 with tags, fused parts or gaps isoform P35557-2): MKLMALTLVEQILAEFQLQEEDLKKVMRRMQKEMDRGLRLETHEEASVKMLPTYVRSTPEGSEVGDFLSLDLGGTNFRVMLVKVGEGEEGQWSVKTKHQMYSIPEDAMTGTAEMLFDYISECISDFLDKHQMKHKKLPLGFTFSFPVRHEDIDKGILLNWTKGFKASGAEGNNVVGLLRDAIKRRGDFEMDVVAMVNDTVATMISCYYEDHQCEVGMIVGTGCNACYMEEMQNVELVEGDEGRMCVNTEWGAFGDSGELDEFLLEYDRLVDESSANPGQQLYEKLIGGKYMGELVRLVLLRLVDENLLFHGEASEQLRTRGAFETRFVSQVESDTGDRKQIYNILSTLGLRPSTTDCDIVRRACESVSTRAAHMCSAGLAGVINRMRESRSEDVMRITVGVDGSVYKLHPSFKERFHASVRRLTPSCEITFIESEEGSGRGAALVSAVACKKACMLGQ
Assay: enzymatic glucokinase activity assay (ATP consumption, KinaseGlo luminescence)
Type: biochemical
Conditions: 5 μM ATP, 5 mM Glucose, reported as bins; for EC50: Kact = concentration that displays 50% of the maximal increase in GK activity, 60 min, room temperature, read-out: pKact
How it was run: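 E. coli-expressed recombinant GK purified by two anion-exchange steps. Reaction in 25 mM Hepes pH 7.2, 10 mM MgCl2, 1 mM DTT, 5 μM ATP, 5 mM glucose, 2% DMSO, 60 min at room temperature. ATP consumption quantified by KinaseGlo luminescence; pKact and % ACTmax derived by non-linear curve fitting.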

[1] = calculated maximal gain in GK enzyme activity at a saturating concentration of the compound, read-out: % ACTmax
[2] = read-out: % ACTmax, calculated maximal gain in GK enzyme activity at a saturating concentration of the compound

| EC50 | Emax [1] [%] | Compound | Emax [2] [%] |
| --- | --- | --- | --- |
| 1580 to 3160 nM | ≥ 111 | O=C(Nc1ncc(F)s1)C(CC1CCCC1)n1cc(S(=O)(=O)C2CC2)cn1 (stereo not shown) [Compound 34, 3-cyclopentyl-2-(4-(cyclopropylsulfonyl)-1H-pyrazol-1-yl)-N-(5-fluorothiazol-2-yl)propanamide] |  |
| ≥ 15800 nM | ≥ 111 | O=C(Nc1ncc(Cl)s1)[C@@H](CC1CCCC1)n1cc(S(=O)(=O)C2CC2)cn1 [Compound 38, (R)-N-(5-chlorothiazol-2-yl)-3-cyclopentyl-2-(4-(cyclopropylsulfonyl)-1H-pyrazol-1-yl)propanamide] |  |
| 1580 to 3160 nM | ≤ 90 | Nc1cc(S(=O)(=O)C2CC2)c2cnn([C@H](CC3CCOCC3)C(=O)Nc3cnccn3)c2n1 [Compound 163, (R)-2-(6-amino-4-(cyclopropylsulfonyl)-1H-pyrazolo[3,4-b]pyridin-1-yl)-N-(pyrazin-2-yl)-3-(tetrahydro-2H-pyran-4-yl)propanamide] |  |
| 3980 to 12600 nM | 101 to 105 | O=C(Nc1ncc(F)s1)[C@H](CC1CCOCC1)n1cc(S(=O)(=O)C2CC2)cn1 [Compound 32, (S)-2-(4-(cyclopropylsulfonyl)-1H-pyrazol-1-yl)-N-(5-fluorothiazol-2-yl)-3-(tetrahydro-2H-pyran-4-yl)propanamide] |  |
| 398 to 1260 nM | 101 to 105 | O=C1CC[C@H](C[C@@H](C(=O)Nc2ncc(Cl)s2)n2ncc3c(S(=O)(=O)C4CC4)cccc32)C1 [Compound 113, (S)-N-(5-chlorothiazol-2-yl)-2-(4-(cyclopropylsulfonyl)-1H-indazol-1-yl)-3-((R)-3-oxocyclopentyl)propanamide] |  |
| 398 to 1260 nM and ≤ 316 nM | ≤ 90 | Cn1ccc(NC(=O)[C@H](CC2CCOCC2)n2ncc3c(S(=O)(=O)C4CC4)cc(C#N)cc32)n1 [Compound 105, (S)-2-(6-cyano-4-(cyclopropylsulfonyl)-1H-indazol-1-yl)-N-(1-methyl-1H-pyrazol-3-yl)-3-(tetrahydro-2H-pyran-4-yl)propanamide] |  |
| ≤ 316 nM | 90 to 100 | Cn1ccc(NC(=O)[C@H](CC2CCOCC2)n2ncc3c(S(=O)(=O)C4CC4)c(F)ccc32)n1 [Compound 165, (S)-2-(4-(cyclopropylsulfonyl)-5-fluoro-1H-indazol-1-yl)-N-(1-methyl-1H-pyrazol-3-yl)-3-(tetrahydro-2H-pyran-4-yl)propanamide] |  |
| 1580 to 3160 nM | 101 to 105 | O=C(Nc1cnccn1)C(CC1CCOCC1)n1ncc2c(S(=O)(=O)C3CC3)cc(F)cc21 (stereo not shown) [Compound 103, 2-(4-(cyclopropylsulfonyl)-6-fluoro-1H-indazol-1-yl)-N-(pyrazin-2-yl)-3-(tetrahydro-2H-pyran-4-yl)propanamide] |  |
| 398 to 1260 nM | ≥ 111 | O=C(Nc1ncc(F)s1)C(CC1CCOCC1)n1ncc2c(S(=O)(=O)C3CC3)c(Br)ccc21 (stereo not shown) [Compound 150, 2-(5-bromo-4-(cyclopropylsulfonyl)-1H-indazol-1-yl)-N-(5-fluorothiazol-2-yl)-3-(tetrahydro-2H-pyran-4-yl)propanamide] |  |
| 1580 to 3160 nM | ≥ 111 | O=C(Nc1ncc(Cl)s1)[C@H](CC1CCCC1)n1cc(S(=O)(=O)C2CC2)cn1 [Compound 39, (S)-N-(5-chlorothiazol-2-yl)-3-cyclopentyl-2-(4-(cyclopropylsulfonyl)-1H-pyrazol-1-yl)propanamide] |  |
| 3980 to 12600 nM | ≤ 90 | O=C(Nc1ncc(F)s1)[C@@H](CC1CCOCC1)n1ncc2c(S(=O)(=O)C3CC3)cc(Cl)cc21 [Compound 145, (R)-2-(6-chloro-4-(cyclopropylsulfonyl)-1H-indazol-1-yl)-N-(5-fluorothiazol-2-yl)-3-(tetrahydro-2H-pyran-4-yl)propanamide] |  |
| 398 to 1260 nM | ≥ 111 | O=C(Nc1ncc(Cl)s1)C(CC1CCOCC1)n1cc2cc(S(=O)(=O)C3CC3)ccc2n1 (stereo not shown) [Compound 51, N-(5-chlorothiazol-2-yl)-2-(5-(cyclopropylsulfonyl)-2H-indazol-2-yl)-3-(tetrahydro-2H-pyran-4-yl)propanamide] |  |
| 1580 to 3160 nM | 101 to 105 | Cn1ccc(NC(=O)[C@H](CC2CCOCC2)n2ncc3c(S(=O)(=O)C4CC4)cncc32)n1 [Compound 159, (S)-2-(4-(cyclopropylsulfonyl)-1H-pyrazolo[3,4-c]pyridin-1-yl)-N-(1-methyl-1H-pyrazol-3-yl)-3-(tetrahydro-2H-pyran-4-yl)propanamide] |  |
| ≥ 15800 nM | ≤ 90 | COc1ccc2nc(NC(=O)[C@H](CC3CCOCC3)n3ccc(S(=O)(=O)C4CC4)n3)sc2n1 [Compound 2, (S)-2-(3-(cyclopropylsulfonyl)-1H-pyrazol-1-yl)-N-(5-methoxythiazolo[5,4-b]pyridin-2-yl)-3-(tetrahydro-2H-pyran-4-yl)propanamide] |  |
| ≤ 316 nM | 101 to 105 | O=C(Nc1ncc(F)s1)C(CC1CCOCC1)n1ncc2c(S(=O)(=O)C3CC3)cccc21 (stereo not shown) [Compound 66, 2-(4-(cyclopropylsulfonyl)-1H-indazol-1-yl)-N-(5-fluorothiazol-2-yl)-3-(tetrahydro-2H-pyran-4-yl)propanamide] |  |
| 1580 to 3160 nM | ≤ 90 | Cn1ccc(NC(=O)C(CC2CCOCC2)n2ncc3c(S(=O)(=O)C4CC4)cc(OC(F)F)cc32)n1 (stereo not shown) [Compound 12, 2-(4-(cyclopropylsulfonyl)-6-(difluoromethoxy)-1H-indazol-1-yl)-N-(1-methyl-1H-pyrazol-3-yl)-3-(tetrahydro-2H-pyran-4-yl)propanamide] |  |
| 3980 to 12600 nM | 101 to 105 | NC(=O)c1cnc(NC(=O)C(CC2CCCC2)n2cc(S(=O)(=O)C3CC3)cn2)s1 (stereo not shown) [Compound 57] |  |
| 3980 to 12600 nM | ≤ 90 | Cn1ccc(NC(=O)C(CC2CCOCC2)n2cc3c(S(=O)(=O)C4CC4)cc(Cl)cc3n2)n1 (stereo not shown) [Compound 167, 2-(6-chloro-4-(cyclopropylsulfonyl)-2H-indazol-2-yl)-N-(1-methyl-1H-pyrazol-3-yl)-3-(tetrahydro-2H-pyran-4-yl)propanamide] |  |
| 3980 to 12600 nM | 90 to 100 | Cn1ccc(NC(=O)[C@@H](CC2CCOCC2)n2ncc3c(S(=O)(=O)C4CC4)ccnc32)n1 [Compound 99, (R)-2-(4-(cyclopropylsulfonyl)-1H-pyrazolo[3,4-b]pyridin-1-yl)-N-(1-methyl-1H-pyrazol-3-yl)-3-(tetrahydro-2H-pyran-4-yl)propanamide] |  |
| ≤ 316 nM | 90 to 100 | O=C(Nc1ncc(F)s1)C(CC1CCOCC1)n1ncc2c(S(=O)(=O)C3CC3)cc(Cl)cc21 (stereo not shown) [Compound 121, 2-(6-chloro-4-(cyclopropylsulfonyl)-1H-indazol-1-yl)-N-(5-fluorothiazol-2-yl)-3-(tetrahydro-2H-pyran-4-yl)propanamide] |  |
| 1580 to 3160 nM | ≥ 111 | O=C(Nc1ncc(Cl)s1)C(CC1CCOCC1)n1ncc2cc(S(=O)(=O)C3CC3)ccc21 (racemic) [Compound 10, N-(5-chlorothiazol-2-yl)-2-(5-(cyclopropylsulfonyl)-1H-indazol-1-yl)-3-(tetrahydro-2H-pyran-4-yl)propanamide] |  |
| 1580 to 3160 nM | 90 to 100 | O=C1CC[C@H](C[C@H](C(=O)Nc2ncc(F)s2)n2ncc3c(S(=O)(=O)C4CC4)cc(Cl)cc32)C1 [Compound 78, (R)-2-(6-chloro-4-(cyclopropylsulfonyl)-1H-indazol-1-yl)-N-(5-fluorothiazol-2-yl)-3-((R)-3-oxocyclopentyl)propanamide] |  |
| ≤ 316 nM | 101 to 105 | O=C1CC[C@H](CC(C(=O)Nc2ncc(Cl)s2)n2ncc3c(S(=O)(=O)C4CC4)cccc32)C1 (stereo partly drawn) [Compound 11, N-(5-chlorothiazol-2-yl)-2-(4-(cyclopropylsulfonyl)-1H-indazol-1-yl)-3-((R)-3-oxocyclopentyl)propanamide] |  |

| Compound | EC50 | Emax [1] [%] | Emax [2] [%] |
| --- | --- | --- | --- |
| O=C(Nc1ncc(F)s1)[C@H](CC1CCOCC1)n1ncc2c(S(=O)(=O)C3CC3)cncc21 [Compound 84, (S)-2-(4-(cyclopropylsulfonyl)-1H-pyrazolo[3,4-c]pyridin-1-yl)-N-(5-fluorothiazol-2-yl)-3-(tetrahydro-2H-pyran-4-yl)propanamide] | ≤ 316 nM |  | 106 to 110 |
| Nc1cc(S(=O)(=O)C2CC2)c2cnn([C@H](CC3CCOCC3)C(=O)Nc3ncc(F)s3)c2n1 [Compound 111, (R)-2-(6-amino-4-(cyclopropylsulfonyl)-1H-pyrazol[3,4-b]pyridin-1-yl)-N-(5-fluorothiazol-2-yl)-3-(tetrahydro-2H-pyran-4-yl)propanamide] | 398 to 1260 nM |  | 106 to 110 |
| O=C(Nc1ncc(F)s1)[C@@H](CC1CCOCC1)n1ncc2c(S(=O)(=O)C3CC3)cncc21 [Compound 85, (R)-2-(4-(cyclopropylsulfonyl)-1H-pyrazolo[3,4-c]pyridin-1-yl)-N-(5-fluorothiazol-2-yl)-3-(tetrahydro-2H-pyran-4-yl)propanamide] | 1580 to 3160 nM |  | 90 to 100 |
